# Measurements taken from patent publication EP4755881A1 (Wuhan Createrna Science and Technology Co., Ltd., priority 2023, dated 2025).
# Like-named read-outs stand apart in the source and are kept apart here.
# Biological target: hLPAR1 (human lysophosphatidic acid receptor 1, Accession No.: NM_001401.4) (Homo sapiens, UniProt Q92633)
# Test: cell-based
# Settings: FLIPR method, CHO-K1 cells overexpressing hLPAR1
# Description: The antagonist properties of the compounds in the present disclosure were determined using the FLIPR (Fluorometric Imaging Plate Reader) method in CHO-K1 cells (Chinese Hamster Ovary cells K1, ATCC) overexpressing hLPAR1 (human lysophosphatidic acid receptor 1, Accession No.: NM_001401.4).
# CHO-K1 cells stably expressing hLPAR1 were placed in a cell culture incubator at 37°C with 5% CO2 and cultured in F-12 medium containing 10% FBS (fetal bovine serum, Gibco, 10099-141), 1% penicillin-streptomycin (Gibco, 15140-122), and 0.4 mg/mL Hygromycin B (Gibco, 10687010). 18-24 hours before the FLIPR experiment, the cells were seeded into a 96-well plate at a density of 250,000 cells/mL (25,000 cells/well) and incubated overnight in the cell culture incubator. On the day of the experiment, the medium was removed, and the cells were washed with FLIPR buffer (2.5 mM probenecid (Thermo, P36400), 1.3 mM CaCl2, 3.3 mM Na2CO3, 1 mM MgSO4, 20 mM HEPES (Invitrogen, 15630080), 1× HBSS (Invitrogen, 14065056), 0.1% BSA (BioSharp, 70080030)). 75 µL of […] Fluo-4 AM fluorescent dye (Thermo, F14202) was added to each well and incubated for 1.0 hour at 37°C for dye loading. The 96-well plate was then washed once with buffer, and 50 µL of buffer containing the test compound or vehicle was added to each well, followed by incubation at room temperature for 30 min. The cell plate was then placed into the FLIPR for baseline fluorescence measurement (excitation wavelength at 485 nm, emission wavelength at 525 to 535 nm). Subsequently, 50 µL/well of agonist (final concentration 1 µM oleoyl-L-α-lysophosphatidic acid sodium salt (Sigma, L7260)) or vehicle (ultrapure water) was added, and fluorescence values were measured at 1-second intervals for 2 min. Finally, the output fluorescence counts were analyzed using GraphPad Prism 9.0 software log(inhibitor) vs. response--Variable slope (four parameters) equation to calculate IC50 values.
# Table 1: Inhibitory activity data of compounds against LPAR1
# [1] = Table 1, read-out: LPAR1 inhibitory activity IC50
# [2] = LPAR1 inhibitory activity IC50, Table 1
# hLPAR1 (human lysophosphatidic acid receptor 1, Accession No.: NM_001401.4), sequence (Q92633 whole entry): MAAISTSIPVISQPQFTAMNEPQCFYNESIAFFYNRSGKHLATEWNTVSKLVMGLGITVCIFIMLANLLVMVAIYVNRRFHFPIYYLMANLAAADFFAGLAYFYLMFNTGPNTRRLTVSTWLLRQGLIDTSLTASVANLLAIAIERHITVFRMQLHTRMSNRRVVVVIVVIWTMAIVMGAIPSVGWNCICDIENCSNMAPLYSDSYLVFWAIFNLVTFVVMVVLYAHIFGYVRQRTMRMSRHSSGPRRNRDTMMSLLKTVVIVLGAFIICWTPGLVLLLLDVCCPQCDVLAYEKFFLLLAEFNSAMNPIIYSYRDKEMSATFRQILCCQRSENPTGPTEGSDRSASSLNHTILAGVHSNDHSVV
SMILES,IC50 [1],IC50 [2]
"Cc1nc(-c2nnn(C)c2NC(=O)O[C@H](C)c2ccccc2)ccc1C#C[C@@H]1CCCC[C@H]1C(=O)O (mixture of isomers) [027-B, trans-2-((2-methyl-6-(1-methyl-5-((((R)-1-phenylethoxy)carbonyl)amino)-1H-1,2,3-triazol-4-yl)pyridin-3-yl)ethynyl)cyclohexane-1-carboxylic acid]",0.0492 µM,–
CCC[C@@H](C)OC(=O)Nc1c(C)noc1-c1ccc(C#C[C@@H]2CC[C@H]2C(=O)O)c(C)n1 [compound 339],0.0026 µM,–
"Cc1nc(-c2nnn(C)c2NC(=O)O[C@H](C)c2ccccc2F)ccc1C#CC1(CC(=O)O)CC1 [compound 014, (R)-2-(1-((6-(5-(((1-(2-fluorophenyl)ethoxy)carbonyl)amino)-1-methyl-1H-1,2,3-triazol-4-yl)-2-methylpyridin-3-yl)ethynyl)cyclopropyl)acetic acid]",0.0077 µM,–
CCOCc1ccnc(NCc2c(-c3ccc(C#CC4(CC(=O)O)CC4)c(C)n3)nnn2C)n1 [compound 364],0.203 µM,–
Cc1noc(-c2ccc(C#C[C@@H]3CCC[C@H]3C(=O)O)cn2)c1NC(=O)O[C@H](C)CC(C)(F)F [compound 344],0.104 µM,–
"CCC(F)CN(C)C(=O)OCc1c(-c2ccc(C#CC3(CC(=O)O)CC3)c(C)n2)nnn1C (stereo not shown) [compound 036, 2-(1-((6-(5-((((2-fluorobutyl)(methyl)carbamoyl)oxy)methyl)-1-methyl-1H-1,2,3-triazol-4-yl)-2-methylpyridin-3-yl)ethynyl)cyclopropyl)acetic acid]",0.103 µM,–
CCC(F)(F)C[C@@H](C)OC(=O)Nc1c(-c2ccc(C#CC3(CC(=O)O)CC3)c(C)n2)nnn1C [compound 264],0.0473 µM,–
Cc1nc(-c2nnn(C)c2NC(=O)O[C@H](C)CC(C)(C)F)ccc1C#C[C@@H]1CC(F)(F)C[C@H]1C(=O)O [compound 273],0.0149 µM,–
Cc1nc(-c2nnn(C)c2COC(=O)N(C)CC2CCC(F)(F)C2)ccc1C#CC1(CC(=O)O)CC1 (stereo not shown) [compound 094],0.0301 µM,–
Cc1nc(-c2nnn(C)c2NC(=O)O[C@H](C)C(F)(F)C(C)C)ccc1C#C[C@@H]1CC[C@H]1C(=O)O [compound 307],0.151 µM,–
"CCC(F)(F)[C@@H](C)OC(=O)Nc1c(-c2ccc(C#C[C@@H]3CC[C@H]3C(=O)O)c(C)n2)nnn1C (mixture of isomers) [212-A, trans-2-((6-(5-(((((R)-3,3-difluoropentan-2-yl)oxy)carbonyl)amino)-1-methyl-1H-1,2,3-triazol-4-yl)-2-methylpyridin-3-yl)ethynyl)cyclobutane-1-carboxylic acid]",0.0421 µM,–
"Cc1nc(-c2nnn(C)c2NC(=O)O[C@H](C)c2ccccc2Cl)ccc1C#C[C@@H]1CCCC[C@H]1C(=O)O (mixture of isomers) [031-A, trans-2-((6-(5-((((R)-1-(2-chlorophenyl)ethoxy)carbonyl)amino)-1-methyl-1H-1,2,3-triazol-4-yl)-2-methylpyridin-3-yl)ethynyl)cyclohexane-1-carboxylic acid]",0.0006 µM,–
"Cc1nc(-c2nnn(C)c2COC(=O)N(C)CC2CCCC2)ccc1C#CC1(CC(=O)O)CC1 [compound 039, 2-(1-((6-(5-((((cyclopentylmethyl)(methyl)carbamoyl)oxy)methyl)-1-methyl-1H-1,2,3-triazol-4-yl)-2-methylpyridin-3-yl)ethynyl)cyclopropyl)acetic acid]",0.0042 µM,–
CCCCN(C)C(=O)OCc1c(-c2ccc(C#C[C@@H]3CC(F)(F)C[C@H]3C(=O)O)c(C)n2)nnn1C (racemic) [compound 252],0.0302 µM,–
"Cc1nc(-c2nnn(C)c2NC(=O)O[C@H](C)c2ccccc2F)ccc1C#C[C@@H]1CCCC[C@H]1C(=O)O (mixture of isomers) [028-A, trans-2-((6-(5-((((R)-1-(2-fluorophenyl)ethoxy)carbonyl)amino)-1-methyl-1H-1,2,3-triazol-4-yl)-2-methylpyridin-3-yl)ethynyl)cyclohexane-1-carboxylic acid]",0.0176 µM,–
"Cc1nc(-c2nnn(C)c2NC(=O)O[C@H](C)c2ccccc2)ccc1C#C[C@@H]1CCCC[C@H]1C(=O)O (mixture of isomers) [027-A, trans-2-((2-methyl-6-(1-methyl-5-((((R)-1-phenylethoxy)carbonyl)amino)-1H-1,2,3-triazol-4-yl)pyridin-3-yl)ethynyl)cyclohexane-1-carboxylic acid]",0.0026 µM,–

SMILES,IC50 [1],IC50 [2]
"Cc1nc(-c2nnn(C)c2COC(=O)N(C)CCC(C)(F)F)ccc1C#CC1(CC(=O)O)CC1 [compound 038, 2-(1-((6-(5-((((3,3-difluorobutyl)(methyl)carbamoyl)oxy)methyl)-1-methyl-1H-1,2,3-triazol-4-yl)-2-methylpyridin-3-yl)ethynyl)cyclopropyl)acetic acid]",0.0511 µM,–
"Cc1nc(-c2nnn(C)c2COC(=O)N(C)CCCCF)ccc1C#CC1(CC(=O)O)CC1 [compound 034, 2-(1-((6-(5-((((4-fluorobutyl)(methyl)carbamoyl)oxy)methyl)-1-methyl-1H-1,2,3-triazol-4-yl)-2-methylpyridin-3-yl)ethynyl)cyclopropyl)acetic acid]",0.0527 µM,–
"CCCc1ccnc(OCc2c(-c3ccc(C#CC4(CC(=O)O)CC4)c(C)n3)nnn2C)n1 [compound 217, 2-(1-((2-methyl-6-(1-methyl-5-(((4-propylpyrimidin-2-yl)oxy)methyl)-1H-1,2,3-triazol-4-yl)pyridin-3-yl)ethynyl)cyclopropyl)acetic acid]",0.0266 µM,–
Cc1noc(-c2ccc(C#CC3(CNS(=O)(=O)O)CC3)c(F)c2)c1NC(=O)O[C@H](C)c1ccccc1Cl [compound 460],0.0118 µM,–
Cc1nc(-c2nnn(C)c2CNC(=O)OCc2cc(F)cnc2Cl)ccc1C#CC1(CC(=O)O)CC1 [compound 117],–,0.0794 µM
"Cc1nc(-c2nnn(C)c2NC(=O)O[C@H](C)CC(C)(C)F)ccc1C#C[C@@H]1CCC[C@H]1C(=O)O (mixture of isomers) [244-A, trans-2-((6-(5-(((((R)-4-fluoro-4-methylpentan-2-yl)oxy)carbonyl)amino)-1-methyl-1H-1,2,3-triazol-4-yl)-2-methylpyridin-3-yl)ethynyl)cyclopentane-1-carboxylic acid]",0.0198 µM,–
"Cc1nc(-c2nnn(C)c2NC(=O)OC(C)C2CCC2)ccc1C#CC1(CC(=O)O)CC1 (stereo not shown) [032-A, 2-(1-((6-(5-(((1-cyclobutylethoxy)carbonyl)amino)-1-methyl-1H-1,2,3-triazol-4-yl)-2-methylpyridin-3-yl)ethynyl)cyclopropyl)acetic acid]",0.0006 µM,–
Cc1nc(-c2nnn(C)c2COc2nccc(C3CCC3)n2)ccc1C#CC1(CC(=O)O)CC1 [compound 194],0.0425 µM,–
"Cc1nc(-c2nnn(C)c2COC(=O)N(C)C2CCCC2)ccc1C#CC1(CC(=O)O)CC1 [compound 018, 2-(1-((6-(5-(((cyclopentyl(methyl)carbamoyl)oxy)methyl)-1-methyl-1H-1,2,3-triazol-4-yl)-2-methylpyridin-3-yl)ethynyl)cyclopropyl)acetic acid]",0.0552 µM,–
"Cc1nc(-c2nnn(C)c2NC(=O)O[C@H](C)c2ccccc2Cl)ccc1C#CC1(CC(=O)O)CC1 [compound 013, (R)-2-(1-((6-(5-(((1-(2-chlorophenyl)ethoxy)carbonyl)amino)-1-methyl-1H-1,2,3-triazol-4-yl)-2-methylpyridin-3-yl)ethynyl)cyclopropyl)acetic acid]",0.0026 µM,–
"Cc1nc(-c2nnn(C)c2NC(=O)O[C@H](C)c2ccccc2Cl)ccc1C#C[C@@H]1CCCC[C@H]1C(=O)O (mixture of isomers) [031-B, trans-2-((6-(5-((((R)-1-(2-chlorophenyl)ethoxy)carbonyl)amino)-1-methyl-1H-1,2,3-triazol-4-yl)-2-methylpyridin-3-yl)ethynyl)cyclohexane-1-carboxylic acid]",0.0002 µM,–
CCc1nc(-c2nnn(C)c2COC(=O)N(C)CCCCF)ccc1C#CC1(CC(=O)O)CC1 [compound 230],0.0599 µM,–
"Cc1nc(-c2nnn(C)c2NC(=O)O[C@H](C)CC(C)(F)F)ccc1C#C[C@@H]1CC[C@H]1C(=O)O (mixture of isomers) [213-A, trans-2-((6-(5-(((((R)-4,4-difluoropentan-2-yl)oxy)carbonyl)amino)-1-methyl-1H-1,2,3-triazol-4-yl)-2-methylpyridin-3-yl)ethynyl)cyclobutane-1-carboxylic acid]",0.0482 µM,–
Cc1nc(-c2nnn(C)c2NC(=O)O[C@H](C)C23CC(C2)C3)ccc1C#CC1(CC(=O)O)CC1 [260-B],–,0.0174 µM
Cc1nc(-c2nnn(C)c2NC(=O)O[C@H](C)CC(C)C)ccc1C#CC1(CC(=O)O)CC1 [compound 220],–,0.0155 µM
